Patent US7863315B2, “2-indolinone derivatives as selective histone deacetylase inhibitors” (Shenzhen Chipscreen Biosciences, Ltd., priority 2008, dated 2011)

Key:
[1] = system: total HDAC enzyme (HeLa extract); assay: In vitro inhibition of total HDAC enzyme activity (HDAC Fluorimetric Assay/Drug Discovery Kit, BIOMOL); assay type: biochemical, human
Experimental: Measurement of in vitro inhibition of total HDAC enzyme activity:
The in vitro inhibition of total HDAC enzyme was determined by HDAC Fluorimetric Assay/Drug Discovery Kit (BIOMOL) according to manufacture's instruction. • 1. Add Assay buffer, diluted trichostatin A or test inhibitor to appropriate wells of the microtiter plate. Following table lists examples of various assay types and the additions required for each test.
• 2. Add diluted HeLa extract or other HDAC sample to all wells except those that are to be “No Enzyme Controls” (Blank). • 3. Allow diluted Fluor de LyS™ Substrate and the samples in the microtiter plate to equilibrate to assay temperature (25° C.). • 4. Initiate HDAC reactions by adding diluted substrate (25 μl) to each well and mixing thoroughly. • 5. Allow HDAC reactions to proceed for desired length of time and then stop them by addition of Fluor de Lys™ Developer (50 μl). Incubate plate at room temperature (25° C.) for 10-15 min. • 6. Read samples in a microtiter-plate reading fluorimeter capable of excitation at a wavelength in the range 350-380 nm and detection of emitted light in the range 440-460 nm.

lysine acetylation = assay: ELISA assay of acetylation of lysine in HeLa cells; assay type: cell-based; conditions: Homo sapiens, M-HeLa, 24 hours
Description: Measurement of acetylation activity in cells on substrates:
ELISA Assay of Acetylation of Lysine
This assay is used to measure in vivo inhibition of HDAC6 in a cytoblot assay.
Materials and Reagent: • 1. 24-well tissue culture • 2. DMEM Medium containing 10% FBS • 3. 96-well white plate • 4. HeLa cell line • 5. M-PER Mammalian Protein Extraction Reagent (Pierce) • 6. Bradford assay reagent • 7. Acetylated-lysine polyclonal Antibody (Cell Signaling) • 8. HRP-labeled anti-rabbit IgG (Upstate) • 9. Coating Buffer: 15 mM Na2CO3, 35 mM NaHCO3 (pH 9.6) • 10. 10×PBS: 0.58M Na2HPO4, 0.17M NaH2PO4, 0.68M NaCl (pH 7.4) • 11. Wash Buffer:1×PBS containing 0.05% Tween-20 (PBST) • 12. Blocking Buffer:10 mg/ml bocine serum albumin (BSA) in PBS • 13. Antibody Dilution Buffer: 5 mg/ml BSA in PBST • 14. Enhanced chemiluminescence (ECL) (Amersham)
Procedure for performing the assay in 96-well plate: • 1. HeLa cells were seeded at a density of 60000 cells/500 μl/well in 24-well plate and incubated at 37° C. for 24 hours. • 2. Compounds were added and incubated for 24 hours at 37° C. • 3. Culture medium was removed, then washes the cells twice with ice-cold PBS. • 4. Add 100 μl/well of Protein Extraction Reagent and gently shake the mixture for 5 minutes. • 5. Collect the lysate to a 96-well plate respectively. Determine the concentration of protein by Bradford assay. • 6. Coat the wells of a 96-well white plate with 100 μl/well of 2.5 μg whole cell protein in Coating Buffer by incubating overnight at 4° C. • 7. Discard the uncoated proteins and wash the coated wells three times with 200 μl/well of PBST. • 8. Block coated wells by incubating the plate with 200 μl/well of Blocking Buffer for 1 hour at 37° C. • 9. Wells were aspirated and washed three times with 200 μl/well of PBST. • 10. After aspirating, 50 μl/well of Antibody Dilution Buffer containing acetylated-lysine polyclonal antibody (1:1000) were added to each well and incubated for 2 hour at 37° C. • 11. Wells were aspirated and washed three times with 200 μl/well of PBST. • 12. 50 μl/well of Antibody Dilution Buffer containing HRP-labeled anti-rabbit IgG (1:2000) were added to each well and incubated for 2 hour at 37° C. • 13. Wells were aspirated and washed three times with 200 μl/well of PBST. • 14. Wells were washed three times with 200 μl/well of purified water. • 15. Add 50 μl/well of ECL mixture, then read the plates on the plate reader.

[2] = system: HDAC7 (Nur77 reporter gene); assay: HDAC subtype reporter gene assay, Nur77-promoter luciferase in HeLa cells; assay type: cell-based; conditions: Homo sapiens, M-HeLa, read-out: % of SAHA Response for HDAC7 at 10 μM (Nur77 reporter gene), 24 hours
Experimental: (§1) Measurement of inhibition of HDAC subtypes activity in cells by reporter gene assay: HDAC subtype selectivity inhibition assay of tested compounds was carried out by several reporter gene assays experiments. Briefly, HeLa cells were seeded in 96-well plates the day before transfection to give a confluence of 50-80%. Cells were transfected with one of reporter gene plasmids containing a promoter sequences or response elements upstream of a luciferase gene construct using FuGene6 transfection reagent according to the manufacturer's instructions (Roche). The promoters or response elements including p21-promoter, gdf11-promoter, MEF-binding element (MEF2), Nur77-promoter were fused upstream to the luciferase gene reporter construct. For normalizing the transfection efficiency, a GFP expression plasmid was cotransfected. Cells were allowed to express protein for 24 hours followed by addition of individual compounds or the vehicle (DMSO). 24 hours later, the cells were harvested and the luciferase assays were performed using the luciferase assay kit according to the manufacturer's instructions (Promega). To normalize the data from the luciferase assays, GFP activity from transfected cells was measured in a microtiter-plate reading fluorimeter capable of excitation at a wavelength at 485 nm and detection of emitted light at 527 nm.

[3] = system: HDAC3 (gdf11 reporter gene); assay: HDAC subtype reporter gene assay, gdf11-promoter luciferase in HeLa cells; assay type: cell-based; conditions: Homo sapiens, M-HeLa, read-out: % of SAHA Response for HDAC3 at 10 μM (gdf11 reporter gene), 24 hours
Experimental: as §1

Row | Compound | % of Inhibition on Total HDAC Enzyme at 30 μM [1] | fold induction at 10 µM (lysine acetylation) | Emax at 10 µM [2] | Emax at 10 µM [3]
1 | Nc1ccccc1NC(=O)CCCCCCCNC(=O)c1ccc(/C=N/N=C2\C(=O)Nc3ccc(F)cc32)cc1 [Example 35, 8-(4-(((5-fluoro-2-oxoindolin-3-ylidene)hydrazono)methyl)benzamido)-N-(2-aminophenyl)octanamide] | 22% | 1.04 | 13% | 36%
2 | O=C(CCCCCNC(=O)c1ccc(/C=N/N=C2\C(=O)Nc3ccc(F)cc32)cc1)NO [Example 31, 6-(4-(((5-fluoro-2-oxoindolin-3-ylidene)hydrazono)methyl)benzamido)-N-hydroxyhexanamide] | 89% | 1.67 | 8% | 36%
3 | Cc1[nH]c(/C=N/N=C2\C(=O)Nc3ccc(F)cc32)c(C)c1C(=O)NCCCCCC(=O)NO [Example 11, 6-(5-(((5-fluoro-2-oxoindolin-3-ylidene)hydrazono)methyl)-2,4-dimethyl-1H-pyrrole-3-carboxamido)-N-hydroxyhexanamide] | 86% | 1.87 | 9% | 49%
4 | Cc1[nH]c(/C=N/N=C2\C(=O)Nc3ccc(F)cc32)c(C)c1C(=O)NCCCCCC(=O)Nc1ccccc1N [Example 13, 6-(5-(((5-fluoro-2-oxoindolin-3-ylidene)hydrazono)methyl)-2,4-dimethyl-1H-pyrrole-3-carboxamido)-N-(2-aminophenyl)hexanamide] | 30% | 3.08 | 5% | 13%
5 | Cc1[nH]c(/C=N/N=C2\C(=O)Nc3ccc(F)cc32)c(C)c1C(=O)NCCCCCC(=O)Nc1ccc(F)cc1N [Example 12, 6-(5-(((5-fluoro-2-oxoindolin-3-ylidene)hydrazono)methyl)-2,4-dimethyl-1H-pyrrole-3-carboxamido)-N-(2-amino-4-fluorophenyl)hexanamide] | 14% | 1.84 | 6% | 6%
6 | Nc1ccccc1NC(=O)CCCCCNC(=O)c1ccc(/C=N/N=C2\C(=O)Nc3ccc(F)cc32)cc1 [Example 32, 6-(4-(((5-fluoro-2-oxoindolin-3-ylidene)hydrazono)methyl)benzamido)-N-(2-aminophenyl)hexanamide] | 20% | 1.32 | 5% | 12%
7 | Cc1[nH]c(/C=N/N=C2\C(=O)Nc3ccc(F)cc32)c(C)c1C(=O)NCCCCC(=O)Nc1ccccc1N [Example 7, 5-(5-(((5-fluoro-2-oxoindolin-3-ylidene)hydrazono)methyl)-2,4-dimethyl-1H-pyrrole-3-carboxamido)-N-(2-aminophenyl)pentanamide] | 2% | 1.58 | 3% | 7%
8 | Cc1[nH]c(/C=N/N=C2\C(=O)Nc3ccc(F)cc32)c(C)c1C(=O)NCCCCC(=O)Nc1ccc(F)cc1N [Example 8, 5-(5-(((5-fluoro-2-oxoindolin-3-ylidene)hydrazono)methyl)-2,4-dimethyl-1H-pyrrole-3-carboxamido)-N-(2-amino-4-fluorophenyl)pentanamide] | −26% | 2.01 | 4% | 5%

Second part, led by results:

Row | % of Inhibition on Total HDAC Enzyme at 30 μM [1] | Compound | fold induction at 10 µM (lysine acetylation) | Emax at 10 µM [2] | Emax at 10 µM [3]
9 | 30% | Nc1cc(F)ccc1NC(=O)CCCCCNC(=O)c1cccc(/C=C2\C(=O)Nc3ccc(F)cc32)c1 [Example 45, 6-(3-((5-fluoro-2-oxoindolin-3-ylidene)methyl)benzamido)-N-(2-amino-4-fluorophenyl)hexanamide] | 1.17 | 16% | 12%
10 | 95% | O=C(CCCCCNC(=O)c1cccc(/C=C2\C(=O)Nc3ccc(F)cc32)c1)NO [Example 46, 6-(3-((5-fluoro-2-oxoindolin-3-ylidene)methyl)benzamido)-N-hydroxyhexanamide] | 1.16 | 4% | 10%
11 | 86% | O=C(CCCCNC(=O)c1cccc(/C=C2\C(=O)Nc3ccc(F)cc32)c1)NO [Example 51, 5-(3-((5-fluoro-2-oxoindolin-3-ylidene)methyl)benzamido)-N-hydroxypentanamide] | 1.31 | 3% | 12%
12 | 22% | Nc1ccccc1NC(=O)CCCCNC(=O)c1cccc(/C=C2\C(=O)Nc3ccc(F)cc32)c1 [Example 49, 5-(3-((5-fluoro-2-oxoindolin-3-ylidene)methyl)benzamido)-N-(2-aminophenyl)pentanamide] | 1.02 | 8% | 11%
13 | 14% | Nc1cc(F)ccc1NC(=O)CCCCCCCNC(=O)c1cccc(/C=C2\C(=O)Nc3ccc(F)cc32)c1 [Example 55, 8-(3-((5-fluoro-2-oxoindolin-3-ylidene)methyl)benzamido)-N-(2-amino-4-fluorophenyl)octanamide] | 1.12 | 9% | 6%
14 | 96% | O=C(CCCCCNC(=O)c1ccc(/C=C2\C(=O)Nc3ccc(F)cc32)cc1)NO [Example 41, 6-(4-((5-fluoro-2-oxoindolin-3-ylidene)methyl)benzamido)-N-hydroxyhexanamide] | 1.6 | 4% | 11%
